Laboratory results reported in ChEMBL document CHEMBL5029185, “Discovery of Novel Polycyclic Heterocyclic Derivatives from Evodiamine for the Potential Treatment of Triple-Negative Breast Cancer” (J Med Chem, 2021).
pIC50: −log10 of the molar value. The source made the active and inactive calls. The calls are words filed in the database; no cut-off is given here.

Tests used:
[1] = tested on: MDA-MB-231; assay: Antiproliferative activity against human MDA-MB-231 cells assessed as inhibition rate at 10 uM incubated for 72 hrs by MTT assay; format: functional
[2] = tested on: MDA-MB-231; assay: Antiproliferative activity against human MDA-MB-231 cells assessed as inhibition rate at 1 uM incubated for 72 hrs by MTT assay; format: functional
[3] = tested on: MDA-MB-231; assay: Antiproliferative activity against human MDA-MB-231 cells assessed as inhibition rate at 100 uM incubated for 72 hrs by MTT assay; format: functional
[4] = tested on: MCF-10A; assay: cells; format: ADME, cell-based; conditions: Homo sapiens, 72 h
Description: Antiproliferative activity against human MCF-10A cells assessed as inhibition rate incubated for 72 hrs by MTT assay

[5] = tested on: LoVo; assay: Antiproliferative activity against human LoVo cells assessed as inhibition rate incubated for 72 hrs by MTT assay; format: functional, cell-based
[6] = tested on: 4T1; assay: Antiproliferative activity against mouse 4T1 cells assessed as inhibition rate incubated for 72 hrs by MTT assay; format: functional, cell-based; conditions: 4T1, 72 h
[7] = tested on: MDA-MB-231; assay: Antiproliferative activity against human MDA-MB-231 cells transfected with siRNA-Top1 assessed as cell viability by MTT assay; format: functional, cell-based
[8] = target: T1, DNA topoisomerase 1 (Homo sapiens) (UniProt P11387); assay: Induction of topoisomerase 1-DNA cleavable complex in human MDA-MB-231 cells assessed as increase in cleavable complex by measuring SDS-K+ precipitable complex at 15 uM measured up to 15 hrs by liquid scintillation counting analysis; format: cell-based; conditions: time hrs <=15
T1 sequence (whole entry): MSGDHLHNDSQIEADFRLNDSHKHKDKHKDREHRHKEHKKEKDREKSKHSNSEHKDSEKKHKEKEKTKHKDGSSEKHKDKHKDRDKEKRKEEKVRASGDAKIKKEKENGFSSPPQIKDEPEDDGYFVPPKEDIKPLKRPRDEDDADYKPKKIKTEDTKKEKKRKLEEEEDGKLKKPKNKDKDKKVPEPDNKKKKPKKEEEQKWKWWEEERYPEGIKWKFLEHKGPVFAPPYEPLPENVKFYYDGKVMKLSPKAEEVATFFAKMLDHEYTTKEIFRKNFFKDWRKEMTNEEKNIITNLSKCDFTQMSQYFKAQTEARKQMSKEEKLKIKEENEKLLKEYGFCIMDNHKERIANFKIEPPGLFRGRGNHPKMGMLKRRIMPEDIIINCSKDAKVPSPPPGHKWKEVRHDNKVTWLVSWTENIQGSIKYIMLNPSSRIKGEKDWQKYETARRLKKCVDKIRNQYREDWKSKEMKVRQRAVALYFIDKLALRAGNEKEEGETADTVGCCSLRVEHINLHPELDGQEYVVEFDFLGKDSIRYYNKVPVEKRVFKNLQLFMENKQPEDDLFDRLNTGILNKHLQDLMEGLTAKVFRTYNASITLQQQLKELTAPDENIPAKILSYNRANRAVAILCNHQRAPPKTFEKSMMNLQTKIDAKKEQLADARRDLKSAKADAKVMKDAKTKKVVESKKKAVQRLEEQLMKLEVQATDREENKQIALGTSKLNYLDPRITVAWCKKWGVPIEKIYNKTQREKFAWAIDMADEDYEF

[9] = tested on: MDA-MB-231; assay: Antiproliferative activity against human MDA-MB-231 cells transfected with siRNA-Ctrl assessed as cell viability by MTT assay; format: functional, cell-based
[10] = tested on: HepG2; assay: Antiproliferative activity against human HepG2 cells assessed as inhibition rate incubated for 72 hrs by MTT assay; format: functional, cell-based; conditions: HepG2, 72 h
[11] = tested on: A549; assay: Antiproliferative activity against human A549 cells assessed as inhibition rate incubated for 72 hrs by MTT assay; format: functional, cell-based; conditions: A549, 72 h
[12] = tested on: MDA-MB-231; assay: Antiproliferative activity against human MDA-MB-231 cells assessed as inhibition rate incubated for 72 hrs by MTT assay; format: functional, cell-based; conditions: MDA-MB-231, 72 h
[13] = tested on: H22; assay: Antiproliferative activity against mouse H22 cells assessed as inhibition rate incubated for 72 hrs by MTT assay; format: functional, cell-based; conditions: H22, 72 h
[14] = Selectivity index, ratio of IC50 for human MCF-10A cells to IC50 for human MDA-MB-231 cells
[15] = Ratio of IC50 for antiproliferative activity against human MDA-MB-231 cells transfected with siRNA-Top1 to IC50 for antiproliferative activity against human MDA-MB-231 cells transfected with siRNA-Ctrl assessed as cell viability by MTT assay; format: functional
[16] = tested on: MCF7; assay: Antiproliferative activity against human MCF7 cells assessed as inhibition rate incubated for 72 hrs by MTT assay; format: functional, cell-based; conditions: MCF7, 72 h
[17] = tested on: MDA-MB-435; assay: Antiproliferative activity against human MDA-MB-435 cells assessed as inhibition rate incubated for 72 hrs by MTT assay; format: functional, cell-based; conditions: MDA-MB-435, 72 h
[18] = target: T1, DNA topoisomerase 1 (Homo sapiens); assay: Inhibition of topoisomerase 1 (unknown origin) assessed as relaxation of supercoiled plasmid pBR322 DNA upto 500 uM incubated for 15 mins by agarose gel electrophoresis; conditions: dose microM <=500, time 15.0 min
[19] = tested on: HCT-116; assay: Antiproliferative activity against human HCT-116 cells assessed as inhibition rate incubated for 72 hrs by MTT assay; format: functional, cell-based; conditions: HCT-116, 72 h
[20] = tested on: HEK293; assay: cells; format: ADME, cell-based; conditions: Homo sapiens, HEK293, 72 h
Description: Antiproliferative activity against HEK293 cells assessed as inhibition rate incubated for 72 hrs by MTT assay

Structure (SMILES)	inhibition at 10 µM [1]	inhibition at 1 µM [2]	inhibition at 100 µM [3]	pIC50 [11]	pIC50 [12]	pIC50 [17]	pIC50 [19]	also measured
COC(=O)c1ccc2[nH]c3c(c2c1)CCN1C(=O)c2ccccc2OC31 (centres undefined)	15.7%	12.6%	45.2%					
COc1ccc2oc3c(c2c1)CCN1C(=O)c2ccc(C)cc2OC31 (centres undefined)	19.2%	7.5%	41.5%					
CC[C@@]1(O)C(=O)OCc2c1cc1n(c2=O)Cc2cc3ccccc3nc2-1 [CAMPTOTHECIN]				7.00	6.38	6.51		pIC50 [4]: 5.66; pIC50 [5]: 5.81; pIC50 [6]: 6.77; pIC50 [7]: < 5.19; Activity [8]: Active; pIC50 [9]: 6.58; pIC50 [10]: 6.96; pIC50 [13]: 6.27; selectivity ratio [14]: 5.2; Ratio IC50 [15]: 24; pIC50 [16]: 6.25
O=C(O)c1ccc2[nH]c3c(c2c1)CCN1C(=O)c2ccccc2OC31 (centres undefined)	11.2%	9.7%	39.6%					
Cc1ccc2c(c1)OC1c3oc4ccc(O)cc4c3CCN1C2=O (centres undefined)	64.8%	62.7%	94%	4.98	5.98	5.94	5.33	Activity [18]: inactive
COc1ccc2oc3c(c2c1)CCN1C(=O)c2cc(Cl)cc(Cl)c2OC31 (centres undefined)	5.5%	8.6%	12.1%					
COc1ccc2oc3c(c2c1)CCN1C(=O)c2ccccc2OC31 (centres undefined)	10.6%	6%	36.6%					
O=C1c2cc(Br)ccc2OC2c3oc4ccc(O)cc4c3CCN12 (centres undefined)	83.1%	75.7%	94.5%	5.38	5.94	6.09	5.77	Activity [18]: inactive
O=C1c2ccccc2OC2c3oc4ccc(O)cc4c3CCN12 (centres undefined)	61.2%	55.1%	96.5%	5.37	6.07	6.33	5.90	Activity [18]: inactive
COc1ccc2oc3c(c2c1)CCN1C(=O)c2cc(Br)ccc2OC31 (centres undefined)	9.2%	6.8%	13%					
COc1ccc2nc3c(cc2c1)CN1C(=O)c2ccccc2N(C)C31 (centres undefined)	11.9%	7.6%	80.7%					
COc1ccc2oc3c(c2c1)CCN1C(=O)c2cc(Cl)ccc2OC31 (centres undefined)	7.3%	2.3%	15.9%					
O=C1c2cc(Cl)cc(Cl)c2OC2c3oc4ccc(O)cc4c3CCN12 (centres undefined)	59.5%	32.7%	96.9%	5.12	5.43	5.63	5.22	Activity [18]: inactive
CN1c2ccccc2C(=O)N2Cc3cc4cc(O)ccc4nc3C21 (centres undefined)	19.8%	6.3%	89.9%					
COc1ccc2oc3c(c2c1)CCN1C(=O)c2cccc(C)c2OC31 (centres undefined)	11.9%	7.1%	15%					
CN1c2ccccc2C(=O)N2CCc3c([nH]c4ccccc34)C21 (centres undefined)	53.3%	38.9%	73.3%	4.11	4.88	5.20	4.49	pIC50 [4]: < 4.00; pIC50 [20]: < 4.00; selectivity ratio ([14]; MCF-10A cells versus MDA-MB-231 cells): > 10.7
Cc1cccc2c1OC1c3oc4ccc(O)cc4c3CCN1C2=O (centres undefined)	66.5%	60.6%	97.4%	5.17	5.60	5.71	5.46	Activity [18]: inactive
